How the values were obtained:
RPMI 8226 cells = assay: Dexamethasone-induced apoptosis, Tunel assay with flow cytometry; type: cell-based, human; details: for % Apoptosis Mean ± SEM: 48 h; for level of apoptosis (cells undergoing apoptosis): representative experiment
Experimental: The cell line RPMI 8226, a human multiple myeloma cell line, was purchased from ATCC (Rockville, Md.). Cells were grown and maintained according to ATCC instructions in complete RPMI medium containing 10% FBS, 1% NEAA, 1% L-glutamine and 1% sodium pyruvate.
Chimeric CLB8 (cCLB8) (Centocor, Malvern, Pa.) was used at three different concentrations in the assay. Another a chimeric human-mouse IgG, c171A, also developed at Centocor was used as a negative control antibody.
[…] After the incubation, cells were harvested and the Tunel assay (Tdt-mediated dUTP-FITC nick end labeling) as disclosed in Gavrieli et al., “Identification of Programmed Cell Death in situ Via Specific Labelling of Nuclear DNA Fragmentation”, […] 119:493-501, 1992 was used to measure apoptosis with minor modifications. Briefly, after the 48-hour incubation described above, approximately 10^6 cells were harvested, washed twice, and fixed with 1% paraformaldehyde for 15 minutes. After washing, the cells were permeabilized with 0.1% Triton (Sigma, St. Louis, Mo.) for 5 minutes and washed twice. The labeling reaction was performed in a heating block at 37° C. for 1 hour with 0.3 nM FITC-12-dUTP (Boehringer Mannheim, Indianapolis, Ind.), 2.5 mM CoCI2, 12.5 U Tdt, and 5 microL of 5×Tdt Buffer (Boehringer Mannheim) in a total volume of 50 microL. Cells were analyzed by flow cytometry.
After completing the Tunel assay, cells were washed twice and analyzed on a FACS Calibur flow cytometer (Becton Dickinson Immunocytometry Systems, San Jose, Calif.) equipped with a 15-mW air-cooled 488-nm argon laser. Gating to exclude debris was based upon diminished forward scatter (FSC) and side scatter (SSC). A minimum of 10,000 events was collected per sample and all analyses were performed with CELLQuest software (Becton Dickinson Immunocytometry Systems, San Jose, Calif.).

IL-6 = biological target: T1, IL-6 (Homo sapiens, UniProt P05231); details: multiple myeloma patients after cCLB8 administration; cited from earlier work
T1 construct: host or cells: patients (endogenous IL-6)
T1 sequence (P05231 30-212): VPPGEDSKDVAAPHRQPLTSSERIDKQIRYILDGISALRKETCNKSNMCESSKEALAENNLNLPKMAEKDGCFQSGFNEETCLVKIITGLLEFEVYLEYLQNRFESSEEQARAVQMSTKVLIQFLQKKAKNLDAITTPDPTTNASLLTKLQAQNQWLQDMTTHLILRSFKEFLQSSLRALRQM

Molecule: C[C@@H]1C[C@H]2[C@@H]3CCC4=CC(=O)C=C[C@]4(C)[C@@]3(F)[C@@H](O)C[C@]2(C)[C@@]1(O)C(=O)CO [Dexamethasone, reference compound]
- % Apoptosis Mean ± SEM (RPMI 8226 cells; RPMI 8226 cells, DEX 10-6 alone): % 46 ± 4
- % Apoptosis Mean ± SEM (RPMI 8226 cells; RPMI 8226 cells, DEX + IL-6 100 pg): % 27 ± 9
- level of apoptosis (cells undergoing apoptosis) (RPMI 8226 cells; FIG. 1A, dexamethasone 1 microM, 48 hrs): 45%
- level of apoptosis (cells undergoing apoptosis) (RPMI 8226 cells; FIG. 1B, dexamethasone in the presence of IL-6): 20%

Molecule: cCLB8: chimerized form of the murine anti-IL-6 monoclonal antibody CLB-6/8 (Centocor)
- % Apoptosis Mean ± SEM (RPMI 8226 cells; RPMI 8226 cells, DEX + IL-6 + CNTO 328 100 ng): % 45 ± 11
- % Apoptosis Mean ± SEM (RPMI 8226 cells; RPMI 8226 cells, DEX + IL-6 + CNTO 328 1 ug): % 54 ± 2.5
- neutralization of the inhibitory effect of IL-6 on dexamethasone-induced apoptosis (RPMI 8226 cells; RPMI 8226 cells, P<0.02): neutralized the inhibitory effect of IL-6 on dexamethasone-induced apoptosis in a dose dependent manner
- promotion of cellular apoptosis, combination versus single agents (RPMI 8226 cells; combination of dexamethasone and cCLB8): superior to treatment with either agent alone
- level of apoptosis (cells undergoing apoptosis) (RPMI 8226 cells; FIG. 1C, dexamethasone in the presence of both IL-6 and cCLB8): 60%
- circulating levels of sIL6R and sgp130 (IL-6): remained unchanged
- serum IL-6 activity (IL-6): total blockage of serum IL-6 activity

Molecule: IL-6: 22-27 kDa secreted glycoprotein cytokine interleukin 6 [reference compound]
- IL-6 concentration inhibiting dexamethasone-induced apoptosis (RPMI 8226 cells; RPMI 8226 cells, dexamethasone 1 microM): higher than 100 ng/mL

Reference: US20040161426A1, “Use of IL-6 antagonists in combination with steroids to enhance apoptosis” (priority 2003, published 2004)
